In EP0340198B1, “Immunoassay for the detection of alpha-haloacetamides” (priority 1988, dated 1989):

Legend:
alachlor antibodies = test: inhibition ELISA for alachlor (cross-reactivity studies); type: binding, rabbit; settings: for reaction (cross-reactivity) with the antibodies, in words: relative to alachlor
Experimental: Immunoassays. A known "checkerboard assay" was initially conducted with each serum sample after the first boost to detect the production of antibodies against alachlor. […] The next 7 rows received the subsequent dilutions of the screening antigen. The plate was covered with Parafilm and stored overnight at 4°C. The next morning, the unbound screening antigen was removed from the wells by washing three times with phosphate buffered saline solution (0.01 M phosphate buffer of pH 7.4, 0.15 M NaCl; PBS). The remaining active sites in the wells were blocked with PBS-8% non-fat dry milk solution, (NFDM, 0.3 mL) for 1 hr at 22°C. Serum, which had been stored at -20°C, was freshly thawed and serially diluted (one to two) from 1,000 to 64,000-fold using PBS-T (PBS containing 0.02% Tween 20). Starting with the most concentrated solution, 0.1 mL of the serum solution was pipetted into all 8 wells of column 1; the remaining columns received the subsequent dilutions of the serum solution. The plate was covered and incubated at 22°C for 1.5 hrs. Following triplicate washes of the wells with PBS-T, each of the wells received 0.1 mL of goat anti-rabbit gamma-globulin conjugated to horseradish peroxidase (GAR-HRP) freshly thawed and diluted 4,000 fold with PBS-1% NFDM. After a final wash cycle (4 times) with PBS-T, freshly prepared O-phenylene diamine (PDA) substrate solution (0.2 mL, 0.04 mg/mL PDA and 0.01% H₂O₂ in 0.05 M citric acid and 0.15 M sodium dibasic phosphate, pH 5.0) was dispensed into each of the wells and incubated in the dark at 22°C for 30-60 min. Sulfuric acid (4 N, 50 µL) was added to each of the wells to stop the reaction, and the final absorbances of the wells (490 nm) were recorded.
The inhibition ELISA required one additional step in the assay procedure described above. Equal volumes of the diluted serum and aqueous alachlor standard or unknown sample were mixed and preincubated at 22°C for 1 hr. This mixture (0.1 mL/well) was then analyzed in 6 replicate wells on the plate. The presence of free alachlor inhibited the binding of the antibody to the alachlor-BSA conjugate, resulting in an inhibition of the development of absorbance at 490 nm. The amount of free alachlor was indirectly proportional to the intensity of color developed. Levels of alachlor in unknown water samples were calculated based on the alachlor standards on the same plate. Alachlor standards (0, 0.2, 0.5, 1.0, 3.0, 5.0, and 8.0 ppb in deionized water) were stored at -20°C in 1-mL portions, and were freshly thawed for each assay.
Data Calculations. The lay-out of a typical 96-well microtiter plate is 8 rows of 12 columns in an inhibition ELISA assay for alachlor. The first 6 wells in the first column of wells were not coated with the screening antigen and served as the background wells. The first 6 wells in the remaining 7 columns of wells were reserved for the seven alachlor standards (0 to 8 ppb) listed above. The remaining wells in all 8 rows were used for the samples. The uncorrected absorbances of the wells determined by the Bio-tek reader were used in the following calculations. The median was calculated for the 6 replicate background wells and was then subtracted from the medians of the standards and samples. All the median values were divided by the median of the standard without alachlor (0 ppb) to generate percentages of absorbances. The percent absorbance of the alachlor standards was then plotted on the Y axis against the logarithm (base 10) of the actual concentrations of alachlor on the X axis. A hyperbolic curve was drawn through the standards, and the resulting standard curve was used to calculate the concentrations of alachlor in the unknown samples.
The calculations described above were usually carried out using a computer program.

[1] = test system: antibodies isolated from the serum of the first bleed of the rabbit; test: affinity column binding of 14C-labeled analytes from aqueous solution; settings: 14C-labeled analogs, test of non-specific binding
Experimental: Affinity Chromatography. The preparation of affinity columns using rabbit antisera was as follows: The rabbit IgG's were purified by passing 5 mL of the antiserum through a column containing 5 mL of the swelled protein A-agarose gel. By monitoring the absorbance at 280 nm in the column effluent, the non-bound proteins were removed by washing with PBS, and the IgG's were then eluted with acetic acid at pH 2.3 (0.58% acetic acid and 0.15 M NaCl). The fractions containing the IgG's were combined and neutralized; based on the UV absorbance at 280 nm (absorbance/1.4 = mg/mL protein), approximately 33 mg of IgG were isolated from 5 mL of serum, which was then lyophilized and stored at -20°C. The reusable protein A-agarose column was stored in PBS containing 0.02% sodium azide at 4°C.
The protein A-purified IgG was immobilized onto Affigel-10 affinity support. Affigel-10 (5 mL) was washed 3 times with isopropyl alcohol and 3 times with cold distilled water in a Buchner funnel. The gel was then added to a solution of IgG (3 mL in 0.1 M HEPES buffer, pH 7.5) at 4°C. Following 4 hrs of stirring, the gel was precipitated by gentle centrifugation and washed with HEPES buffer (3 x 3 mL). The remaining active sites on the gel were blocked by resuspending the gel in water (2 mL) and adding ethanolamine HCl (0.5 mL, 1M), and stirring the mixture at 22°C for 1 hr. The affinity column was useful in adsorbing alachlor and other analytes from aqueous solutions. After binding the alachlor, the column was washed with water (2 mL/min) to remove unbound material and alachlor was eluted with 75% aqueous methanol.
Using the antibodies isolated from the serum of the first bleed of the rabbit, an affinity column for alachlor was constructed to study its utility as an isolation and purification tool. The IgG's in the serum of the rabbit immunized with the alachlor-IgG conjugate were purified with a protein A-agarose column. The purified IgG was then immobilized onto the Affigel-10 support. Alachlor (¹⁴C-labeled) in aqueous solution was passed through the column with a flow rate of 2 mL/min; the column was washed with water and eluted with 75% aqueous methanol. The radioactivity in the wash and eluent were determined by liquid scintillation counting. […] The capacity of the column was less than 1 µg, and once this level was exceeded, alachlor no longer bound to the column. The recovery of applied radioactivity generally ranged from 80% to 100%. In a second experiment, alachlor (0.5 µg) was dissolved into increasing volumes of water ranging from 1 mL to 100 mL.
To eliminate the possibility of non-specific binding of alachlor to the affinity column, other ¹⁴C-labeled analogs were also studied. These included acetanilide herbicides butachlor, acetochlor, metolachlor, and propachlor and the previously mentioned alachlor metabolites mercapturate and its methyl ester. The affinity column bound butachlor and acetochlor, but not metolachlor, propachlor, or mercapturate.

[2] = test system: antibodies toward butachlor; test: inhibition ELISA for butachlor; type: binding, rabbits; settings: for inhibition of the ELISA assay for butachlor: standard solutions at 10 and 50 ppb in DI water
Source text: (§1) The generation of antibodies toward butachlor (2-chloro-2′,6′-diethyl-N-(butoxymethyl)acetanilide), amidochlor (2-chloro-2′,6′-diethyl-N-acetamidomethyl acetanilide), and metolachlor (2-chloro-2′-ethyl-6′-methyl-N-(2-methoxy-1-methylethyl)acetanilide) were accomplished following identical procedures as those described for alachlor. The individual 14C-labeled chloroacetanilide was covalently bound to HSA (human serum albumin) with AHT, and to sheep IgG with AMSA.
(§2) The hapten-IgG conjugates were used to immunize rabbits. The corresponding hapten-BSA conjugates were then utilized in checkerboard assays to determine the presence of desired antibodies in the antisera. An inhibition ELISA for butachlor was set up with antiserum, butachlor-HSA screening antigen, and butachlor. Similar assays were also set up for amidochlor and metolachlor.
(§3) The sensitivity of the inhibition ELISA for butachlor, amidochlor, and metolachlor was tested with respective standards prepared in DI water. Using the best antiserum, the butachlor ELISA produced an IC50 of 8 ppb.
(§4) The specificity of the ELISA for butachlor, amidochlor, and metolachlor were tested using standard solutions of alachlor, acetochlor, butachlor, amidochlor, metolachlor, and propachlor at concentrations of 10 and 50 ppb in DI water. At these concentrations, the ELISA assay for butachlor, amidochlor, and metolachlor was each inhibited only by the respective free hapten, and not by any of the other chloroacetanilides.

[3] = test system: antibodies toward metolachlor; test: inhibition ELISA for metolachlor; type: binding, rabbits; settings: for inhibition of the ELISA assay for metolachlor: standard solutions at 10 and 50 ppb in DI water
Source text: as §1, §2, §3, §4

[4] = test system: antibodies toward amidochlor; test: inhibition ELISA for amidochlor; type: binding, rabbits; settings: for inhibition of the ELISA assay for amidochlor: standard solutions at 10 and 50 ppb in DI water
Source text: as §1, §2, §3, §4

[5] = IC50 of alachlor divided by IC50 of analog x 100, bleed not stated

| Compound | reaction (cross-reactivity) with the antibodies, in words (alachlor antibodies) | percent cross-reactivity (alachlor antibodies; [5]) | other results |
| --- | --- | --- | --- |
| CCc1cccc(CC)c1N(COC)C(=O)C[S+]([O-])CC(NC(C)=O)C(=O)O (stereo not shown) [S=O derivative] | significantly reduced or eliminated |  |  |
| CCc1cccc(CC)c1N(COC)C(=O)CSC | strong interaction | 188% |  |
| oxanilic acid | little reaction | less than 2.5% |  |
| CCc1cccc(CC)c1N(COC)C(=O)CSCC(=O)O [thioacetic acid conjugate of alachlor] |  | 57.0% |  |
| CCc1cccc(CC)c1NC(=O)CCl [α-chloro-2′,6′-diethylacetanilide] | no reaction |  |  |
| CCc1cccc(CC)c1N(COC)C(=O)CSCC(NC(C)=O)C(=O)OC (stereo not shown) [methyl ester of the mercapturate] |  | 89.7% | binding by the affinity column [1]: Binding was observed |
| CCc1cccc(CC)c1N(COC)C(=O)C[S+](C)[O-] (stereo not shown) [sulfoxide analog] |  | 15% |  |
| CCc1cccc(CC)c1NC(=O)CSCC(NC(C)=O)C(=O)O (stereo not shown) [secondary amide mercapturate] | significantly reduced or eliminated |  |  |
| CCc1cccc(CC)c1N(COC)C(=O)CSCC(NC(C)=O)C(=O)O (stereo not shown) [mercapturate analog] |  |  | percent cross-reactivity (alachlor antibodies; bleed four): 18%; percent cross-reactivity (alachlor antibodies; bleed seven): 65%; binding by the affinity column [1]: not |
| CCc1cccc(C)c1N(C(=O)CCl)C(C)COC (stereo not shown) [metolachlor, 2-chloro-2′-ethyl-6′-methyl-N-(2-methoxy-1-methylethyl)acetanilide] | little to no interaction |  | binding by the affinity column [1]: not; inhibition of the ELISA assay for butachlor [2]: not; IC50 ([3]; best antiserum, standards in DI water): 8 ppb; inhibition of the ELISA assay for metolachlor [3]: inhibited; inhibition of the ELISA assay for amidochlor [4]: not |
| CCc1cccc(CC)c1N(COC)C(=O)CS(=O)(=O)O [sulfonic acid] | little reaction | less than 2.5% |  |
| CCc1cccc(CC)c1N(COC)C(=O)CS(=O)(=O)CCO | no cross-reactivity |  |  |
| CCCCOCN(C(=O)CCl)c1c(CC)cccc1CC [butachlor, 2-chloro-2′,6′-diethyl-N-(butoxymethyl)acetanilide] | little to no interaction |  | binding by the affinity column [1]: bound; IC50 ([2]; best antiserum, butachlor-HSA screening antigen, standards in DI water): 8 ppb; inhibition of the ELISA assay for butachlor [2]: inhibited; inhibition of the ELISA assay for metolachlor [3]: not; inhibition of the ELISA assay for amidochlor [4]: not |
| CCc1cccc(CC)c1N(COC)C(=O)CS(C)(=O)=O [sulfone analog] |  | 9% |  |
| CCc1cccc(CC)c1N [2,6-diethylaniline] | no reaction |  |  |
| CCc1cccc(CC)c1N(COC)C(=O)CSCC(NC(=O)CCC(N)C(=O)O)C(=O)NCC(=O)O (stereo not shown) [glutathione conjugate of alachlor] |  | 27.5% |  |
| CCc1cccc(CC)c1N(COC)C(C)=O [norchloro-alachlor] |  | 22% |  |
| CCc1cccc(CC)c1NC(=O)CSC | no cross-reactivity |  |  |
| CCc1cccc(CC)c1N(CNC(C)=O)C(=O)CCl [amidochlor, 2-chloro-2′,6′-diethyl-N-acetamidomethyl acetanilide] | little to no interaction |  | inhibition of the ELISA assay for butachlor [2]: not; inhibition of the ELISA assay for metolachlor [3]: not; IC50 ([4]; amidochlor-HSA as the screening antigen, standards in DI water): 2 ppb; IC50 ([4]; butachlor-HSA substituted for amidochlor-HSA as the screening antigen): 0.2 ppb; inhibition of the ELISA assay for amidochlor [4]: inhibited |
